The values below come from ChEMBL document CHEMBL5365436, “Novel Amphibian Bowman-Birk-Like Inhibitor with Antioxidant and Anticoagulant Effects Ameliorates Pancreatitis Symptoms in Mice” (J Med Chem, 2023).

Assay [1] has as its system Mus musculus. Nature of the assay: Anti-inflammatory activity in L-arginine-induced acute pancreatitis in BALB/c mouse model assessed as reduction in serum amylase at 50 mg/kg preincubated with compound followed by L-Arg induction for 1 hr and measured after 24 hrs by automatic analyzer. The settings on record: time 25.0 hrs. Format: functional, organism-based.
For assay [2], the system named is Mus musculus. Description: Anti-inflammatory activity in L-arginine-induced acute pancreatitis in BALB/c mouse model assessed as reduction in IL-6 level at 50 mg/kg preincubated with compound followed by L-Arg induction for 1 hr and measured after 24 hrs by ELISA method. Format: functional, organism-based. To be noted: time 25.0 hrs. In general terms: An ELISA detects its analyte on a solid surface through an enzyme-linked reagent.

Assay [3] deals with Mus musculus. Nature of the assay: Anti-inflammatory activity in L-arginine-induced acute pancreatitis in BALB/c mouse model assessed as inhibition of trypsin activity at 50 mg/kg preincubated with compound followed by L-Arg induction for 1 hr and measured after 24 hrs. The assay is classed as functional, organism-based. To be noted: time 25.0 hrs.
Assay [4] deals with Mus musculus. Nature of the assay: Antithrombotic activity FeCl3-induced thrombosis in BALB/c mouse model assessed as carotid artery blood flow time at 5 mg/kg preincubated with compound followed by FeCl3 treatment for 1 hr and measured upto 12 mins by laser perfusion imaging method. Format: functional. The settings on record: time 72 min, 1.2 h.
Assay [5] is filed under the species Mus musculus. Description: Anti-inflammatory activity in L-arginine-induced acute pancreatitis in BALB/c mouse model assessed as reduction in serum amylase preincubated with compound followed by L-Arg induction for 1 hr and measured after 24 hrs by automatic analyzer. The assay is classed as functional, organism-based. The settings on record: dose 1.25-5 mg/kg, time 25.0 hrs.

For assay [6], the species on record is Mus musculus. Nature of the assay: Anti-inflammatory activity in L-arginine-induced acute pancreatitis in BALB/c mouse model assessed as reduction in IL-6 level preincubated with compound followed by L-Arg induction for 1 hr and measured after 24 hrs by ELISA method. The settings on record: dose 1.25-5 mg/kg, time 25.0 hrs. The assay is classed as functional, organism-based.

The subject of assay [7] is Mus musculus. Nature of the assay: Anti-inflammatory activity in L-arginine-induced acute pancreatitis in BALB/c mouse model assessed as improvement in neutrophil level in spleen at 1.25 to 5 mg/kg preincubated with compound followed by L-Arg induction for 1 hr and measured after 24 hrs by flow cytometry analysis. The assay is classed as functional, organism-based. To be noted: dose 1.25-5 mg/kg, time 25.0 hrs. (Flow cytometry measures light scatter and fluorescence of single cells or particles in a stream.)

For assay [8], the species on record is Mus musculus. Nature of the assay: Anti-inflammatory activity in L-arginine-induced acute pancreatitis in BALB/c mouse model assessed as inhibition of increase in myeloperoxidase activity at preincubated with compound followed by L-Arg induction for 1 hr and measured after 24 hrs. The settings on record: dose 1.25-5 mg/kg, time 25.0 hrs. The assay is classed as functional, organism-based.

The subject of assay [9] is Mus musculus. Nature of the assay: Anti-inflammatory activity in L-arginine-induced acute pancreatitis in BALB/c mouse model assessed as inhibition of trypsin activity at 1.25 to 5 mg/kg preincubated with compound followed by L-Arg induction for 1 hr and measured after 24 hrs. Format: functional, organism-based. To be noted: dose 1.25-5 mg/kg, time 25.0 hrs.
The test system of assay [10] is Mus musculus. Description: Anti-inflammatory activity in L-arginine-induced acute pancreatitis in BALB/c mouse model assessed as decrease in neutrophil to lymphocyte ratio at 5 mg/kg preincubated with compound followed by L-Arg induction for 1 hr and measured after 24 hrs. The assay is classed as functional, organism-based. To be noted: time 25.0 hrs.
Assay [11] deals with Mus musculus. Nature of the assay: Anti-inflammatory activity in L-arginine-induced acute pancreatitis in BALB/c mouse model assessed as decrease in platelet to lymphocyte ratio at 5 mg/kg preincubated with compound followed by L-Arg induction for 1 hr and measured after 24 hrs. The assay is classed as functional, organism-based. The settings on record: time 25.0 hrs.
Assay [12] concerns Mus musculus. Description: Anti-inflammatory activity in L-arginine-induced acute pancreatitis in BALB/c mouse model assessed as reduction in neutrophil infiltration in pancreas at 1.25 to 5 mg/kg preincubated with compound followed by L-Arg induction for 1 hr and measured after 24 hrs by H and E staining based analysis. The assay is classed as functional, organism-based. To be noted: dose 1.25-5 mg/kg, time 25.0 hrs.

Assay [13] deals with Mus musculus. Description: Anti-inflammatory activity in L-arginine-induced acute pancreatitis in BALB/c mouse model assessed as reduction in interstitial edema in pancreas at 1.25 to 5 mg/kg preincubated with compound followed by L-Arg induction for 1 hr and measured after 24 hrs by H and E staining based analysis. To be noted: dose 1.25-5 mg/kg, time 25.0 hrs. The assay is classed as functional, organism-based.

The subject of assay [14] is Mus musculus. Description: Anti-inflammatory activity in L-arginine-induced acute pancreatitis in BALB/c mouse model assessed as reduction in hemorrhage in pancreas at 1.25 to 5 mg/kg preincubated with compound followed by L-Arg induction for 1 hr and measured after 24 hrs by H and E staining based analysis. The assay is classed as functional, organism-based. To be noted: dose 1.25-5 mg/kg, time 25.0 hrs.

Assay [15] deals with Mus musculus. Description: Anti-inflammatory activity in L-arginine-induced acute pancreatitis in BALB/c mouse model assessed as reduction in necrosis in pancreas at 1.25 to 5 mg/kg preincubated with compound followed by L-Arg induction for 1 hr and measured after 24 hrs by H and E staining based analysis. The assay is classed as functional, organism-based. The settings on record: dose 1.25-5 mg/kg, time 25.0 hrs.

Assay [16] relates to Mus musculus. Nature of the assay: Anti-inflammatory activity in L-arginine-induced acute pancreatitis in BALB/c mouse model assessed as reduction in acinar cell necrosis in pancreas at 1.25 to 5 mg/kg preincubated with compound followed by L-Arg induction for 1 hr and measured after 24 hrs by H and E staining based analysis. To be noted: dose 1.25-5 mg/kg, time 25.0 hrs. The assay is classed as functional, organism-based.

Assay [17] has as its target T1, Trypsin (Homo sapiens, UniProt P07477+P07478+P35030). Nature of the assay: Binding affinity to trypsin (unknown origin) assessed as inhibition constant by Lineweaver-Burk plot analysis. The assay is classed as protein assay.
Assay [18] addresses T1, Trypsin. Nature of the assay: Binding affinity to trypsin (unknown origin) assessed as dissociation constant by surface plasmon resonance imaging method. Format: protein assay.
The nature of assay [19]: Antioxidant activity assessed as DPPH radical scavenging activity at 40 uM measured at 10 min by microplate reader analysis relative to control. Format: functional.
Assay [20] in a line: Antioxidant activity assessed as ABTS radical scavenging activity at 40 uM measured at 10 min by microplate reader analysis relative to control. Format: functional.
Assay [21] in a line: Antioxidant activity assessed as ferric reducing capacity at 40 uM measured at 10 min by FRAP assay (reference value: 20.87 %). Format: functional. Set-up: scale not given: the % may be the effect or the level left.
Assay [22] has as its system Mus musculus. Nature of the assay: Antioxidant activity in L-arginine-induced acute pancreatitis in BALB/c mouse model assessed as reversal of SOD activity at 1.25 to 5 mg/kg by DCFH-DA staining method. Format: functional, organism-based. The settings on record: dose 1.25-5 mg/kg.
For assay [23], the system named is Mus musculus. Description: Antioxidant activity in L-arginine-induced acute pancreatitis in BALB/c mouse model assessed as reversal of GSH level at 1.25 to 5 mg/kg by DCFH-DA staining method. Format: functional, organism-based. The settings on record: dose 1.25-5 mg/kg.
The test system of assay [24] is Mus musculus. Description: Antioxidant activity in L-arginine-induced acute pancreatitis in BALB/c mouse model assessed as decrease in MDA level at 1.25 to 5 mg/kg by DCFH-DA staining method. Format: functional, organism-based. The settings on record: dose 1.25-5 mg/kg.
Assay [25] concerns Mus musculus. Nature of the assay: Antioxidant activity in L-arginine-induced acute pancreatitis in BALB/c mouse model assessed as decrease in ROS accumulation at 1.25 to 5 mg/kg by DCFH-DA staining method. The settings on record: dose 1.25-5 mg/kg. The assay is classed as functional, organism-based.
For assay [26], the system named is Mus musculus. Description: Antithrombotic activity in L-arginine-induced acute pancreatitis in BALB/c mouse model assessed as reduction in thrombosis by measuring fluorescence intensity at 5 mg/kg preincubated with compound followed by L-Arg induction for 1 hr and measured after 24 hrs by imaging based analysis (reference value: 24497.7). Format: functional. The settings on record: time 25 hrs.

Assay [27] addresses T1, Trypsin. Nature of the assay: Inhibition of trypsin (unknown origin) assessed as inhibition of casein hydrolysis using S2238 as chromogenic substrate preincubated for 5 mins followed by substrate addition and measured after 11 mins by absorbance based analysis. The assay is classed as protein assay. To be noted: dose 0.3125-10 µM, time 16.0 min.
The species entered for assay [28] is Mus musculus. Description: Antithrombotic activity in L-arginine-induced acute pancreatitis in BALB/c mouse model assessed as prolongation of plasma recalcification time preincubated with compound followed by L-Arg induction for 1 hr and measured after 24 hrs by fluorescence based analysis. The assay is classed as functional, organism-based. The settings on record: dose 0.1-50 µM, time 25.0 hrs.

The species named for assay [29] is Mus musculus. Description: Antithrombotic activity in L-arginine-induced acute pancreatitis in BALB/c mouse model assessed as inhibition of thrombin induced platelet aggregation preincubated with compound followed by L-Arg induction for 1 hr and measured after 24 hrs by fluorescence based analysis. The assay is classed as functional, organism-based. To be noted: dose 12.5-50 µM, time 25.0 hrs.

Active and inactive are the calls of the source. The calls are words filed in the database; no cut-off is given here. Positions of bridges follow the written chain, without caps; N, C: chain ends. Residues, ends and D or L forms follow the SMILES beside them.

Regarding `CC(=O)N[C@@H](CS)C(=O)O`, the outcome in assay [1], in assay [2] and in assay [3] was Active.

One may read the Ki as a measure of affinity in units of concentration, obtained from inhibition or displacement. As a reminder, the Kd is the concentration at which binding is half-saturated. Regarding `CC(C)C[C@H](NC(=O)[C@@H]1CSSC[C@H](NC(=O)CNC(=O)[C@H](CO)NC(=O)[C@H](CC(C)C)NC(=O)[C@@H](N)CO)C(=O)N[C@@H](Cc2c[nH]c3ccccc23)C(=O)N[C@@H]([C@@H](C)O)C(=O)N[C@@H](CCCCN)C(=O)N[C@@H](CO)C(=O)N[C@@H](Cc2ccccc2)C(=O)N2CCC[C@H]2C(=O)N[C@@H](CCCNC(=N)N)C(=O)N[C@@H](CCCCN)C(=O)N2CCC[C@H]2C(=O)N1)C(=O)N[C@@H](CCCNC(=N)N)C(=O)O` (H-SLSGCWTKSFPRKPCLR-OH; disulfide 5-15), the Time in [4] was found to be 12.46 min. Further, the Activity entry in assay [5] is “Dose-Dependent Effect”; in [6], “Dose-Dependent Effect”; in assay [8] it was “Dose-Dependent Effect”; in [19], 33.1%; in assay [20], 58.8%; in assay [21], 66.5%. In addition, the Activity result in [28] and in [29] was “Dose-Dependent Effect” in each case. Further, the result in [7], in [9], in assay [10], in assay [11], in [12] and in [13] was Active. In addition, the outcome in assay [14], in [15], in [16], in [22], in assay [23] and in assay [24] was Active. Besides, in assay [25], the result was Active. The Ki in assay [17] was 2660 nM. Besides, in assay [18], the Kd was 1930 nM. Also, in [26], the Flu intensity is on record as 14936.4. In [27], the inhibition entry was “Dose-Dependent Effect”.
